Common to all, as to assay: Transient transfection (transactivation) assay in CV-1 cells, GAL4-PPAR chimera, luciferase reporter
Common to all, as to format: cell-based

The target in one experiment is T1, PPAR gamma (Homo sapiens, UniProt P37231).
T1 construct: expressed in transfected cells; host or cells: CV-1 cells
T1 sequence (P37231 238-503 limits assumed): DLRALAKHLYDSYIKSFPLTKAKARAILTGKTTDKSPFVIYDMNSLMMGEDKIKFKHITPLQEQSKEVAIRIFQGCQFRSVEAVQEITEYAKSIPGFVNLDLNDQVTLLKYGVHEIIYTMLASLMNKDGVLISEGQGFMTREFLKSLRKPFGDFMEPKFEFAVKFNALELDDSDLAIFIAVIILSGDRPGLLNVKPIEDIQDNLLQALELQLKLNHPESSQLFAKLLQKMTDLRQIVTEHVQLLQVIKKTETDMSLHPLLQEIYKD

The target of another experiment is T2, PPAR alpha (Homo sapiens, UniProt Q07869).
T2 construct: expressed in transfected cells; host or cells: CV-1 cells
T2 sequence (Q07869 239-466 limits assumed): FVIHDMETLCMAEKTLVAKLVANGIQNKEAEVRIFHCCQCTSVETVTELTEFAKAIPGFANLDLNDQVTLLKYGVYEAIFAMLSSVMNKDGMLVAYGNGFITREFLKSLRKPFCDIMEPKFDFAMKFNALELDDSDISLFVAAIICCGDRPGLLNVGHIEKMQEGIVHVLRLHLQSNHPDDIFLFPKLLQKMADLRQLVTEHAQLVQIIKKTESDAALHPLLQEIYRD
The procedure, abridged: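 GAL4 DNA-binding domain fused to PPAR ligand binding domain, co-transfected into CV-1 cells with a luciferase reporter carrying four or five GAL4 sites. Replated cells in phenol-red free DME with 5% delipidated calf serum were treated with compound or 1% DMSO for 20-24 hours; luciferase read for EC50 and efficacy.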

In a further experiment the target is T3, PPAR delta (Homo sapiens, UniProt Q03181).
T3 construct: expressed in transfected cells; host or cells: CV-1 cells
T3 sequence (Q03181 211-439 limits assumed): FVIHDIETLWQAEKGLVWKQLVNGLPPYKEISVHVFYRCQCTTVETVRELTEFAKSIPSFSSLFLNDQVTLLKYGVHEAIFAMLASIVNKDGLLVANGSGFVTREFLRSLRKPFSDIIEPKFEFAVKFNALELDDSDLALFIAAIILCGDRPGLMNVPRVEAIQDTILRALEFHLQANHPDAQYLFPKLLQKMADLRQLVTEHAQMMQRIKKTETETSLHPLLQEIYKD

As to `O=C(O)Cc1cccc(S(=O)(=O)N2CCC(c3ccc(Cl)cc3)CC2)c1` [Example 184, {3-[4-(4-Chloro-phenyl)-piperidine-1-sulfonyl]-phenyl}-acetic acid], the values for the EC50 on PPAR gamma, on PPAR alpha and at PPAR delta were greater than 100 µM, greater than 100 µM and 5 to 100 µM, respectively.

Turning to `Cc1cc(CC(=O)O)cc(S(=O)(=O)N2CCC(c3ccc(Cl)cc3)CC2)c1` [Example 185, {3-[4-(4-Chloro-phenyl)-piperidine-1-sulfonyl]-5-methyl-phenyl}-acetic acid], the EC50 (as a rule, the midpoint of the concentration-response curve) was 5 to 100 µM on PPAR gamma, greater than 100 µM on PPAR alpha and 5 to 100 µM on PPAR delta.

For `O=C(O)CCc1cccc(S(=O)(=O)N2CCN(c3ccc(Cl)c(Cl)c3)CC2)c1` [Example 186, 3-{3-[4-(3,4-Dichloro-phenyl)-piperazine-1-sulfonyl]-phenyl}-propionic acid], the figures for the EC50 on PPAR gamma, at PPAR alpha and at PPAR delta were 5 to 100 µM, greater than 100 µM and less than 5 µM, respectively.

As to `O=C(O)CCc1cccc(S(=O)(=O)N2CCN(c3ccc(Cl)cc3)CC2)c1` [Example 187, 3-{3-[4-(4-Chloro-phenyl)-piperazine-1-sulfonyl]-phenyl}-propionic acid], the EC50 on PPAR gamma is 5 to 100 µM; at PPAR alpha it was greater than 100 µM; at PPAR delta it was less than 5 µM.

Turning to `O=C(O)COc1cccc(S(=O)(=O)N2CCN(c3ccc(Cl)c(Cl)c3)CC2)c1` [Example 188], the results for the EC50 on PPAR gamma, on PPAR alpha and at PPAR delta were greater than 100 µM, greater than 100 µM and 5 to 100 µM, respectively.

`CC(C)(Oc1cccc(S(=O)(=O)N2CCN(c3ccc(Cl)c(Cl)c3)CC2)c1)C(=O)O` [Example 189, 2-{3-[4-(3,4-Dichloro-phenyl)-piperazine-1-sulfonyl]-phenoxy}-2-methyl-propionic acid]: the results for the EC50 at PPAR gamma, on PPAR alpha and at PPAR delta were 5 to 100 µM, greater than 100 µM and greater than 100 µM, respectively.

Take `O=C(O)COc1cccc(S(=O)(=O)N2CCN(c3ccc(C(F)(F)F)cc3)CC2)c1` [Example 190, {3-[4-(4-Trifluoromethyl-phenyl)-piperazine-1-sulfonyl]-phenoxy}-acetic acid]: the EC50 on PPAR gamma is greater than 100 µM; at PPAR alpha, greater than 100 µM; at PPAR delta it was 5 to 100 µM.

Consider `CC(C)(Oc1cccc(S(=O)(=O)N2CCN(c3ccc(C(F)(F)F)cc3)CC2)c1)C(=O)O` [Example 191, 2-Methyl-2-{3-[4-(4-trifluoromethyl-phenyl)-piperazine-1-sulfonyl]-phenoxy}-propionic acid], for which the EC50 on PPAR gamma, on PPAR alpha and on PPAR delta was 5 to 100 µM each time.

Turning to `C[C@@H]1CN(c2ccc(OC(F)(F)F)cc2)C[C@H](C)N1S(=O)(=O)c1ccc(O)c(CCC(=O)O)c1` [Example 192, 3-{5-[2,6-Dimethyl-4-(4-trifluoromethoxy-phenyl)-piperazine-1-sulfonyl]-2-hydroxy-phenyl}-propionic acid], the EC50 on PPAR gamma was greater than 100 µM; at PPAR alpha, greater than 100 µM; at PPAR delta, 5 to 100 µM.

For the compound `C[C@@H]1CN(c2ccc(C(F)(F)F)cn2)C[C@H](C)N1S(=O)(=O)c1ccc(O)c(CCC(=O)O)c1` [Example 193, 3-{5-[2,6-Dimethyl-4-(5-trifluoromethyl-pyridin-2-yl)-piperazine-1-sulfonyl]-2-hydroxy-phenyl}-propionic acid], the figures for the EC50 at PPAR gamma, on PPAR alpha and on PPAR delta were greater than 100 µM, greater than 100 µM and 5 to 100 µM, respectively.

For `COc1ccc(S(=O)(=O)N2[C@H](C)CN(c3ccc(C(F)(F)F)cn3)C[C@@H]2C)cc1CCC(=O)O` [Example 194, 3-{5-[2,6-Dimethyl-4-(5-trifluoromethyl-pyridin-2-yl)-piperazine-1-sulfonyl]-2-methoxy-phenyl}-propionic acid], the results for the EC50 at PPAR gamma, on PPAR alpha and at PPAR delta were greater than 100 µM, greater than 100 µM and less than 5 µM, respectively.

As to `Cc1cc(CC(=O)O)cc(S(=O)(=O)N2[C@@H](C)CN(c3ccc(C(F)(F)F)cn3)C[C@@H]2C)c1` [Example 195, {3-[2,6(S,S)-Dimethyl-4-(5-trifluoromethyl-pyridin-2-yl)-piperazine-1-sulfonyl]-5-methyl-phenyl}-acetic acid], the EC50 at PPAR gamma was 5 to 100 µM; on PPAR alpha it was 5 to 100 µM; at PPAR delta it was less than 5 µM.

In the case of `Cc1cc(S(=O)(=O)N2CCN(c3ccc(C(F)(F)F)cn3)CC2)cc(CC(=O)O)c1Br` [Example 196, {2-Bromo-3-methyl-5-[4-(5-trifluoromethyl-pyridin-2-yl)-piperazine-1-sulfonyl]-phenyl}-acetic acid], the EC50 at PPAR gamma was less than 5 µM; at PPAR alpha, 5 to 100 µM; on PPAR delta, less than 5 µM.

Regarding `Cc1cc(S(=O)(=O)N2[C@H](C)CN(c3ccc(C(F)(F)F)cn3)C[C@@H]2C)cc(CC(=O)O)c1Br` [Example 197, {2-Bromo-5-[2,6-dimethyl-4-(5-trifluoromethyl-pyridin-2-yl)-piperazine-1-sulfonyl]-3-methyl-phenyl}-acetic acid], the EC50 was 5 to 100 µM on PPAR gamma, greater than 100 µM at PPAR alpha and less than 5 µM at PPAR delta.

Take `Cc1cc(S(=O)(=O)N2[C@H](C)CN(c3ccc(OC(F)(F)F)cc3)C[C@@H]2C)cc(CC(=O)O)c1Br` [Example 198, {2-Bromo-5-[2,6-dimethyl-4-(4-trifluoromethoxy-phenyl)-piperazine-1-sulfonyl]-3-methyl-phenyl}-acetic acid]: the EC50 was 5 to 100 µM at PPAR gamma, 5 to 100 µM at PPAR alpha and less than 5 µM at PPAR delta.

For `O=C(O)Cc1cc(Br)cc(S(=O)(=O)N2CCN(c3ccc(C(F)(F)F)cn3)CC2)c1` [Example 199, {3-Bromo-5-[4-(5-trifluoromethyl-pyridin-2-yl)-piperazine-1-sulfonyl]-phenyl}acetic acid], the EC50 was 5 to 100 µM on PPAR gamma, 5 to 100 µM on PPAR alpha and less than 5 µM on PPAR delta.

For `C[C@@H]1CN(c2ccc(OC(F)(F)F)cc2)C[C@H](C)N1S(=O)(=O)c1cc(Br)cc(CC(=O)O)c1` [Example 200, {3-Bromo-5-[2,6-dimethyl-4-(4-trifluoromethoxy-phenyl)-piperazine-1-sulfonyl]-phenyl}-acetic acid], the EC50 at PPAR gamma was 5 to 100 µM; on PPAR alpha, 5 to 100 µM; at PPAR delta, less than 5 µM.

As to `O=C(O)Cc1cc(Br)cc(S(=O)(=O)N2CCN(c3ccc(OC(F)(F)F)cc3)CC2)c1` [Example 201, {3-Bromo-5-[4-(4-trifluoromethoxy-phenyl)-piperazine-1-sulfonyl]-phenyl}-acetic acid], the EC50 at PPAR gamma was 5 to 100 µM; on PPAR alpha, 5 to 100 µM; on PPAR delta it was less than 5 µM.

In the case of `O=C(O)Cc1cc(C(F)(F)F)cc(S(=O)(=O)N2CCN(c3ccc(C(F)(F)F)cc3)CC2)c1` [Example 202, {3-Trifluoromethyl-5-[4-(4-trifluoromethyl-phenyl)-piperazine-1-sulfonyl]-phenyl}-acetic acid], the EC50 on PPAR gamma was 5 to 100 µM; at PPAR alpha, 5 to 100 µM; at PPAR delta, less than 5 µM.

In the case of `O=C(O)Cc1cc(C(F)(F)F)cc(S(=O)(=O)N2CCN(c3ccc(C(F)(F)F)cn3)CC2)c1` [Example 203, {3-Trifluoromethyl-5-[4-(5-trifluoromethyl-pyridin-2-yl)-piperazine-1-sulfonyl]-phenyl}-acetic acid], the EC50 at PPAR gamma is 5 to 100 µM; at PPAR alpha it was 5 to 100 µM; at PPAR delta it was less than 5 µM.

Take `C[C@@H]1CN(c2ccc(C(F)(F)F)cn2)C[C@H](C)N1S(=O)(=O)c1cc(CC(=O)O)cc(C(F)(F)F)c1` [Example 204, {3-[2,6-Dimethyl-4-(5-trifluoromethyl-pyridin-2-yl)-piperazine-1-sulfonyl]-5-trifluoromethyl-phenyl}-acetic acid]: the EC50 at PPAR gamma was greater than 100 µM; at PPAR alpha it was greater than 100 µM; on PPAR delta it was less than 5 µM.

As to `Cc1ccc(S(=O)(=O)N2CCN(c3ccc(C(F)(F)F)cn3)C(C(F)(F)F)C2)cc1CC(=O)O` (stereo not drawn) [Example 205, {2-Methyl-5-[3-trifluoromethyl-4-(5-trifluoromethyl-pyridin-2-yl)-piperazine-1-sulfonyl]-phenyl}-acetic acid], the EC50 on PPAR gamma is 5 to 100 µM; at PPAR alpha, 5 to 100 µM; on PPAR delta it was less than 5 µM.

As to `COc1ccc(S(=O)(=O)N2[C@H](C)CN(c3ccc(OC(F)(F)F)cn3)C[C@@H]2C)cc1CC(=O)O` [Example 206, {5-[2,6-Dimethyl-4-(5-trifluoromethoxy-pyridin-2-yl)-piperazine-1-sulfonyl]-2-methoxy-phenyl}-acetic acid], the EC50 on PPAR gamma is 5 to 100 µM; on PPAR alpha it was greater than 100 µM; on PPAR delta, less than 5 µM.

Values taken from patent US20050234046A1 (Kalypsys, Inc., priority 2004, published 2005).
